Experimental data taken from ChEMBL document CHEMBL1201862, “PubChem BioAssay data set” (2004).
Activity calls are given as the source filed them.

Assays:
[1] = target: T1, Alkaline phosphatase, tissue-nonspecific isozyme (Homo sapiens, UniProt P05186); test: TNAP enzyme activators, dose response, selectivity assay for human IAP activator project, biochemical, TNAP isozyme, human IAP uHTS hits (AID 488886); format: functional;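 also: potency of compounds raising TNAP activity as a selectivity check on IAP activators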
T1 sequence (P05186 whole entry): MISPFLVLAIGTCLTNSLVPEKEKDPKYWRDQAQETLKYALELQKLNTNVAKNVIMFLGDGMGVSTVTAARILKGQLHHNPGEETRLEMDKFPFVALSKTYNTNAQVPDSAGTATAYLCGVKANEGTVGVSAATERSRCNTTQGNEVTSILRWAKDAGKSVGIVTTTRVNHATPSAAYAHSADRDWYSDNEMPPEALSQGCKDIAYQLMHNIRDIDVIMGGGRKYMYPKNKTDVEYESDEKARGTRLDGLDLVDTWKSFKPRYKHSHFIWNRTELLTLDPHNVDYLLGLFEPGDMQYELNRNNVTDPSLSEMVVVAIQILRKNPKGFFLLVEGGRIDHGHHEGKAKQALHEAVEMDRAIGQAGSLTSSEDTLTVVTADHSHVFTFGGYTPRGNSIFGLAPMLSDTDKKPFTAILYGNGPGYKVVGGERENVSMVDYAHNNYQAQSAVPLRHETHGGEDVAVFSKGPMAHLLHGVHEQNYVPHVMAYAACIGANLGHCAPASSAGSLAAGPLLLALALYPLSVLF

[2] = target: T2, Intestinal-type alkaline phosphatase (Homo sapiens, UniProt P09923); test: human IAP activators, dose response, biochemical, luminescent, uHTS hits, set 2 (AID 488817); format: functional;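 also: potency of activators that raise enzyme activity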
T2 sequence (P09923 whole entry): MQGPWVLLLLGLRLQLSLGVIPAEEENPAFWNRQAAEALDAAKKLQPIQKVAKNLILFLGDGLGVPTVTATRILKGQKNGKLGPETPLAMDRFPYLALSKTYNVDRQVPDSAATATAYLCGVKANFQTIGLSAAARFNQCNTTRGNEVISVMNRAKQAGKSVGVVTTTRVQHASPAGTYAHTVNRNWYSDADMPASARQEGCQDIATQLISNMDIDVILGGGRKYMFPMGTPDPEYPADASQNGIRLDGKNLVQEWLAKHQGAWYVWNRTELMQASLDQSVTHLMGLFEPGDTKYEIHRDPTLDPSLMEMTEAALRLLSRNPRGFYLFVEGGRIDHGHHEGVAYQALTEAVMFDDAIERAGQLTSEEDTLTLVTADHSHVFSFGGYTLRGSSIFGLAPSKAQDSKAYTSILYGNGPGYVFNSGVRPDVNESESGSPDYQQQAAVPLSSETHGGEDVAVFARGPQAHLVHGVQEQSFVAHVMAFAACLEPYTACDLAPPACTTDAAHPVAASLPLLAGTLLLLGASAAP

[3] = target: T3, Intestinal-type alkaline phosphatase (Mus musculus, UniProt P24822); test: PubChem AID 488874; format: functional
T3 sequence (P24822 whole entry): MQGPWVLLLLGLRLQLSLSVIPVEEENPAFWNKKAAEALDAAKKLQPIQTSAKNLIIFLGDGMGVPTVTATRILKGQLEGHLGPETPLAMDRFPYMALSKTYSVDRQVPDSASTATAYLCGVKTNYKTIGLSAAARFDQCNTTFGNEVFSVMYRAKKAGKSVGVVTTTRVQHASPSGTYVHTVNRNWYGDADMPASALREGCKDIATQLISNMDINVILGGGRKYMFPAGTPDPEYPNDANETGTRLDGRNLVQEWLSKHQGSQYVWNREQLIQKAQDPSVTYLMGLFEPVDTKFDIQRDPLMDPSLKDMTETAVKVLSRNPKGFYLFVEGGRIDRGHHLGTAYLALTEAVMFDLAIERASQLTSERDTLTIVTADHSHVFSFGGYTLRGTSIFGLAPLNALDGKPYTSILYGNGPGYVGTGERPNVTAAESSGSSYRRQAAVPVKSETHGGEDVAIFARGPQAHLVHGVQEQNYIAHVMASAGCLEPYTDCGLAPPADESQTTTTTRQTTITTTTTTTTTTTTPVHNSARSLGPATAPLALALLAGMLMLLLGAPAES

[4] = target: T2, Intestinal-type alkaline phosphatase; test: human intestinal alkaline phosphatase activators, dose response, biochemical, luminescence, uHTS hits (AID 463120); format: functional
[5] = target: T4, Sphingosine 1-phosphate receptor 4 (Homo sapiens, UniProt O95977); test: Fluorescence dose response cell-based high throughput screening assay for agonists of the Sphingosine 1-Phosphate Receptor 4 (S1P4). [Related pubchem assays: 1509 (Primary screen.), 1523 (Confirmation screen in triplicates.)]; format: functional
T4 sequence (O95977 whole entry): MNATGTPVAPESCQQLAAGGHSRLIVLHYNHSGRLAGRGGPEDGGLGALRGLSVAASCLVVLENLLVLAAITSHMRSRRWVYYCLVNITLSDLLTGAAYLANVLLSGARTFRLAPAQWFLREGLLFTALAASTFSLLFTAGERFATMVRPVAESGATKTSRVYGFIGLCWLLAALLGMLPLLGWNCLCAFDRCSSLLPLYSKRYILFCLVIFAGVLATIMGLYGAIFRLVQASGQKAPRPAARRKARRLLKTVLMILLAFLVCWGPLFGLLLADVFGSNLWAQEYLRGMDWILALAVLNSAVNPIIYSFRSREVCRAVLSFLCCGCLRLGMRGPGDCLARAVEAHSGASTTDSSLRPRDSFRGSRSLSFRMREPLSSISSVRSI

[6] = target: Sphingosine 1-phosphate receptor 1 (Homo sapiens, UniProt P21453); test: Fluorescence-based counterscreen assay for S1P4 agonists: Cell-based dose response high throughput screening assay to identify agonists of the Sphingosine 1-Phosphate Receptor 1 (S1P1). [Related pubchem assays (depositor defined):AID1509, AID1523, AID1801, AID463107, AID463118, AID463119, AID463122, AID463123, AID463129, AID463225, AID504400, AID504460]; format: functional
Sequence of Sphingosine 1-phosphate receptor 1 (P21453 whole entry): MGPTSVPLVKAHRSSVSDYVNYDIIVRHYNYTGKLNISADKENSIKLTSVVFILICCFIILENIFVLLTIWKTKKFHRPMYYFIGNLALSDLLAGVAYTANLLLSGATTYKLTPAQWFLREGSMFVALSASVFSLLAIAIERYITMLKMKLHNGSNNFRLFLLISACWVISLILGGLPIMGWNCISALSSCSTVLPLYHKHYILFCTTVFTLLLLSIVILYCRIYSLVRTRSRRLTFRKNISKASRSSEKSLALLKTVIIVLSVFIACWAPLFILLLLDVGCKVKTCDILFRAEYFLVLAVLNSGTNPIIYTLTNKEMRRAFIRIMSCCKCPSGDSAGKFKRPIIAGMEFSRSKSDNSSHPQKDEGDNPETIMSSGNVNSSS

[7] = target: T5, Streptokinase A (Streptococcus pyogenes serotype M1, UniProt P10520); test: S. pyogenes streptokinase expression inhibitors, potency, dose response, plasminogen activation absorbance, OD405 (AID 1914); format: functional, Streptococcus pyogenes M1 GAS;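 also: secreted streptokinase activity via plasminogen activation per viability signal from cell pellet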
T5 sequence (P10520 whole entry): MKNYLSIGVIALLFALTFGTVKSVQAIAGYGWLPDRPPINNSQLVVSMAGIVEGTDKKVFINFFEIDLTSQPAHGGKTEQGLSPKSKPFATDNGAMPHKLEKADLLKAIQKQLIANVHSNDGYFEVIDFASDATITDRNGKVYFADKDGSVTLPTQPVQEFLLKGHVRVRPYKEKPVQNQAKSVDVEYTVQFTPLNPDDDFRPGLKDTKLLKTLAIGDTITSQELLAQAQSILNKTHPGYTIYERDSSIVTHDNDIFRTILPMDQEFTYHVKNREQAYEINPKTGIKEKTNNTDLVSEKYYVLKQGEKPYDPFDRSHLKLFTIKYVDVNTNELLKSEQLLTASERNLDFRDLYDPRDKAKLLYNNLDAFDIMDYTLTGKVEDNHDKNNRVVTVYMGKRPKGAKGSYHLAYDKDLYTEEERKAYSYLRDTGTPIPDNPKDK

[8] = nonselective inhibitors of cellular cAMP signaling, dose response, counter-screen for MC4R biased antagonist project, cell-based, TR-FRET cAMP detection (AID 602305); format: functional;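 also: U2OS cells stimulated with forskolin near its EC80 as the cAMP inducer; potency is for inhibition of forskolin-stimulated cAMP signaling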
[9] = target: T6, G-protein coupled receptor 55 (Homo sapiens, UniProt Q9Y2T6); test: GPR55 antagonists, SAR follow-up, counter-screen for GPR35 antagonist project, imaging, image-based (AID 2397); format: functional
T6 sequence (Q9Y2T6 whole entry): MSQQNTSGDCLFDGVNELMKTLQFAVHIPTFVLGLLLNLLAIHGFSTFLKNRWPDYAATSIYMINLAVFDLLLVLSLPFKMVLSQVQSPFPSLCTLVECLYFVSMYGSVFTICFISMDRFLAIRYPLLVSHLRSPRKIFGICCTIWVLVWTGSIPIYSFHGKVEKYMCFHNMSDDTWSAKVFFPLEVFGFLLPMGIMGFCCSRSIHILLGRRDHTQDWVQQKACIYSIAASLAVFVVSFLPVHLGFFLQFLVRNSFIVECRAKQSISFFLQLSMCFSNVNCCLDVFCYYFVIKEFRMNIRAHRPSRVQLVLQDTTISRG

[10] = system: Streptococcus sp. 'group A'; test: growth inhibition of control SK(-) GAS strain, dose response, counter-screen for streptokinase expression inhibitor project, luminescence, kanamycin, BacTiterGlo, confirmation (AID 1900); format: functional, organism-based
[11] = target: Melanocortin receptor 4 (Homo sapiens, UniProt P32245); test: MC4R antagonist potency on cAMP, dose response, cell-based, TR-FRET, biased antagonists (AID 602298); format: functional;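 also: antagonist potency against agonist-stimulated cAMP production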
Sequence of Melanocortin receptor 4 (P32245 whole entry): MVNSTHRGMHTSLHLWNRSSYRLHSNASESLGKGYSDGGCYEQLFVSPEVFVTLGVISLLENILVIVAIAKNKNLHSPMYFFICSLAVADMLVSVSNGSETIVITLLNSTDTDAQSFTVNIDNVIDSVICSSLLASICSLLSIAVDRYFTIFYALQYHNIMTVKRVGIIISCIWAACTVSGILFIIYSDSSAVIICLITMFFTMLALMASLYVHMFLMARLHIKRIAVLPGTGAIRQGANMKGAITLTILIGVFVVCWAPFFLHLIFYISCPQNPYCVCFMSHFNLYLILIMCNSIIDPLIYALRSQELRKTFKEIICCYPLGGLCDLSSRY

[12] = system: Streptococcus; test: Group A Streptococcus viability loss, dose response, counter-screen for streptokinase expression inhibitor project, luminescence, BacTiterGlo (AID 1915); format: functional, organism-based;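 also: potency for reduction of bacterial viability or growth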
[13] = target: Cannabinoid receptor 1 (Homo sapiens, UniProt P21554); test: SAR analysis of antagonists of the Cannabinoid Receptor 1 using an Image-Based Assay. [Related pubchem assays (depositor defined):AID1961, AID1965]; format: functional
Sequence of Cannabinoid receptor 1 (P21554 whole entry): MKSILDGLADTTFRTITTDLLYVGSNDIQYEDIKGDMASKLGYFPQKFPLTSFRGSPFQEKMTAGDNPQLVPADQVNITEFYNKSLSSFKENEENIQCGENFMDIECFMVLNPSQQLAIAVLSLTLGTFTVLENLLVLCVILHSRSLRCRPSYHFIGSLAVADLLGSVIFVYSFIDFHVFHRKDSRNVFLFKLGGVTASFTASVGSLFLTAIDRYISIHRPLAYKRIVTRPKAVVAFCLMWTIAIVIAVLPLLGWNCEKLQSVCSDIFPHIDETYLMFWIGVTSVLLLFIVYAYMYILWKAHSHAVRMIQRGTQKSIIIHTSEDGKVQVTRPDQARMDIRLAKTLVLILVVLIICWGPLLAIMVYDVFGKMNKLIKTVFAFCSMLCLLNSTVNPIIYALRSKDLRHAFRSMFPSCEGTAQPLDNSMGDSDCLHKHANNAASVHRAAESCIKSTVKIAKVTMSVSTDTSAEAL

[14] = target: T7, Cannabinoid receptor 2 (Homo sapiens, UniProt P34972); test: SAR analysis of agonists of the Cannabinoid Receptor 2 using an Image-Based Assay - Set 2. [Related pubchem assays (depositor defined):AID1961, AID1965]; format: functional
T7 sequence (P34972 whole entry): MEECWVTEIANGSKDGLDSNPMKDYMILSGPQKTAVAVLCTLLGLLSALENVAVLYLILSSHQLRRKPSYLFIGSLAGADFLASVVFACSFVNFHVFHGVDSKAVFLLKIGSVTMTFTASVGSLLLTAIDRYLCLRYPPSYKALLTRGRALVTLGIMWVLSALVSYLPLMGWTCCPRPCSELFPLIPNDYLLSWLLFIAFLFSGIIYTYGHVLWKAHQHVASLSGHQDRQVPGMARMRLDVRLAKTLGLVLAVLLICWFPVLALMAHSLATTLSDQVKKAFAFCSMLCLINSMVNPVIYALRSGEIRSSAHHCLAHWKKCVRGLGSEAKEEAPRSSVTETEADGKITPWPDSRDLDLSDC

[15] = target: Dual specificity protein phosphatase 3 (Homo sapiens, UniProt P51452); test: SAR VHR1 Fluorescent Assay for In Vitro dose response studies Set 2. [Related pubchem assays (depositor defined):AID1654, AID1661, AID1878]; format: functional
Sequence of Dual specificity protein phosphatase 3 (P51452 whole entry): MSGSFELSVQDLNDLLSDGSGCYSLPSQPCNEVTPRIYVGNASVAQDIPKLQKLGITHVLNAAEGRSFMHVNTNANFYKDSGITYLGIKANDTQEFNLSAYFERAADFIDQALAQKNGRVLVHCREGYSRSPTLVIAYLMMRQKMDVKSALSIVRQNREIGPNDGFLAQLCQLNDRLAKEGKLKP

[16] = target: T6, G-protein coupled receptor 55; test: SAR analysis of selective Agonists of GPR55 using an Image-Based Assay. [Related pubchem assays (depositor defined):AID1961, AID1965]; format: functional
[17] = target: T7, Cannabinoid receptor 2; test: SAR analysis of antagonists of the Cannabinoid Receptor 2 using an Image-Based Assay - Set 2. [Related pubchem assays (depositor defined):AID1961, AID1965]; format: functional
[18] = target: T8, Tyrosine-protein phosphatase non-receptor type 7 (Homo sapiens, UniProt P35236); test: SAR analysis of chemical inhibitors of HePTP using a Fluorescent assay - Set 2. [Related pubchem assays (depositor defined):AID1059, AID1077, AID1661, AID2085, AID521]; format: functional
T8 sequence (P35236 whole entry): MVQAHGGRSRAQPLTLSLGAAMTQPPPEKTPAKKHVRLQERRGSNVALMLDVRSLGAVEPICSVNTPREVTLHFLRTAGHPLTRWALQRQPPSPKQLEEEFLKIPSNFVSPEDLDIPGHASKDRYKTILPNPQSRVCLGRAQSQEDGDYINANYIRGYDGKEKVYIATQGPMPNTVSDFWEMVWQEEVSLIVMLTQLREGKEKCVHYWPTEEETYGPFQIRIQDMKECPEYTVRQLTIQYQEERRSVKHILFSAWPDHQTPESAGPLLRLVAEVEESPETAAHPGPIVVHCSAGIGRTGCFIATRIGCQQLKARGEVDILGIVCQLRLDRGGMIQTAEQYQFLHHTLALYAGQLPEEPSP

[19] = target: T6, G-protein coupled receptor 55; test: GPR55 agonists via beta-arrestin recruitment, primary screen, imaging, U2OS cells, beta-arrestin-GFP redistribution (AID 1961); format: functional
[20] = target: T2, Intestinal-type alkaline phosphatase; test: Dose Response confirmation of uHTS hits from a small molecule inhibitors of human intestinal alkaline phosphatase via a luminescent assay. [Related pubchem assays (depositor defined):AID2544, AID2574]; format: functional
[21] = target: T2, Intestinal-type alkaline phosphatase; test: human IAP inhibitors, dose response, biochemical, luminescent, uHTS hits, set 2 (AID 488793); format: functional
[22] = target: T3, Intestinal-type alkaline phosphatase; test: PubChem AID 488875; format: functional
[23] = target: T1, Alkaline phosphatase, tissue-nonspecific isozyme; test: inhibition of tissue-nonspecific alkaline phosphatase – biochemical, dose response (AID 488882); format: functional
[24] = target: Cytochrome P450 2D6 (Homo sapiens, UniProt P10635);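 also: CYP2D6 member of a cytochrome P450 panel assay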
[25] = Fluorescence-based cell-based high throughput dose response assay for inhibitors of the interaction of nucleotide-binding oligomerization domain containing 2 (NOD2) and the receptor-interacting serine-threonine kinase 2 (RIPK2).; format: functional; settings: Homo sapiens
[26] = target: Beta Lactamase (Pseudomonas aeruginosa, UniProt Q932Y6); test: beta-lactamase reporter inhibitor potency, dose response, artefact control for NOD2-RIPK2 interaction inhibitor project, BLA reporter cells, FRET fluorescence (AID 651552); format: functional, cell-based
Sequence of Beta Lactamase (Q932Y6 whole entry): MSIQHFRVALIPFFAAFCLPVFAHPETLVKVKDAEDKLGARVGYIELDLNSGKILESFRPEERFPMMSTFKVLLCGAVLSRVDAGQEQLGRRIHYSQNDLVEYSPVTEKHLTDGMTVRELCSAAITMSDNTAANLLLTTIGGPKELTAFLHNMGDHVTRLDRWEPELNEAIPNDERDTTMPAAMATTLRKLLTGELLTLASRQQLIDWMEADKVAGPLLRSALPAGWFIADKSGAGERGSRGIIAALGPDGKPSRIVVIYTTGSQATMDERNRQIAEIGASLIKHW

[27] = target: Nuclear receptor ROR-alpha (Homo sapiens, UniProt P35398); test: ROR modulator nuclear receptor reporter panel, late-stage follow-up, ROR modulator project, cell-based, luciferase reporter, panel member RORA (AID 2117)
Sequence of Nuclear receptor ROR-alpha (P35398 whole entry): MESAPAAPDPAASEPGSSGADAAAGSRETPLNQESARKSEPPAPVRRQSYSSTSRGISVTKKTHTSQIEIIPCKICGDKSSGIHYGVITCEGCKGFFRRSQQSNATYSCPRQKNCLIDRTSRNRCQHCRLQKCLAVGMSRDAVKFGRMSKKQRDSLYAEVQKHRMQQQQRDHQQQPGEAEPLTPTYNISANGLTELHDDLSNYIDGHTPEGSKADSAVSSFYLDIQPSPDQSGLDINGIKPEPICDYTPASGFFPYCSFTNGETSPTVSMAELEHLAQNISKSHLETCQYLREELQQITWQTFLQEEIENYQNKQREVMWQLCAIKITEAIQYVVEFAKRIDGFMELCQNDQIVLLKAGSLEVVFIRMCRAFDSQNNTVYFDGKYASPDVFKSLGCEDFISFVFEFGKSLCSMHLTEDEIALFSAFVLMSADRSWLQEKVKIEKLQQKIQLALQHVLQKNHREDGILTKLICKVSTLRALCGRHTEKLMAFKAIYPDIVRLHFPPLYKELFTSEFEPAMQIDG

[28] = target: Nuclear receptor ROR-gamma (Homo sapiens, UniProt P51449); test: ROR modulator nuclear receptor reporter panel, late-stage follow-up, ROR modulator project, cell-based, luciferase reporter, panel member RORG (AID 2117)
Sequence of Nuclear receptor ROR-gamma (P51449 whole entry): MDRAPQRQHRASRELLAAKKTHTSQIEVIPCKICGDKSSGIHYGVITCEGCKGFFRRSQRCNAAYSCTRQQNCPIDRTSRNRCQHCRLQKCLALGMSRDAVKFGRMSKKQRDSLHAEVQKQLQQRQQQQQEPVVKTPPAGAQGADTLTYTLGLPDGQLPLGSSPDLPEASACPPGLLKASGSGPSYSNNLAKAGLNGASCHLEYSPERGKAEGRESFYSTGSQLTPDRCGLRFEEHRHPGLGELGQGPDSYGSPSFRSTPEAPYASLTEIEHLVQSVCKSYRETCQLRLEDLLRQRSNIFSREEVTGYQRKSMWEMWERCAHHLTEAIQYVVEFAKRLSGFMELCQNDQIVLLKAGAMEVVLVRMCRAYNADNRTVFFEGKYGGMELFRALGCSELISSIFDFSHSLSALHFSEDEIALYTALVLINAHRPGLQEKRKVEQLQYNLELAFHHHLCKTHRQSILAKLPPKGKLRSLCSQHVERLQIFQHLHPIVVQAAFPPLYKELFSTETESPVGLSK

In the case of `Cc1cccc(-n2ncc3c(NNC(=O)c4ccco4)ncnc32)c1`, the EC50 [1] is reported as 7.58 µM (active), the EC50 [2] is reported as 7.33 µM (active) and the IC50 [3] is reported as 66.9 µM (active). For the same compound, the EC50 [4] was 7.19 µM (active).

For `O=C(NCc1ccccc1)c1nc[nH]c1C(=O)N[C@@H](Cc1ccccc1)C(=O)OCc1ccccc1`, the EC50 [5] was 90.2 µM (not active) and the EC50 [6] was > 49.8 µM (inactive).

With `Cc1nc(N2CCC(C)CC2)c2c(C)c(C(=O)Nc3ccccc3C(F)(F)F)sc2n1` the EC50 [7] was 6.34 µM (active), the IC50 [8] was > 64.6 µM (inactive) and the IC50 [9] was 6.95 µM (active). For the same compound, the EC50 [10] was 3.69 µM (active), the IC50 [11] was > 64.6 µM (inactive) and the EC50 [12] was 41.5 µM (active).

For `COc1ccccc1/C=C/C(=O)NC(=S)Nc1ccc(S(=O)(=O)N(C)c2ccccc2)cc1`, the IC50 [13] was > 32 µM (inactive), the EC50 [14] was > 32 µM (inactive) and the IC50 [15] was > 100 µM (inactive). For the same compound, the EC50 [16] was 0.114 µM (active), the IC50 [17] was > 32 µM (inactive) and the IC50 [18] was > 100 µM (inactive). For the same compound, the EC50 [19] was < 0.5 µM (active).

For `O=C1C2C3C=CC(C3)C2C(=O)N1c1n[nH]c(-c2cccnc2)n1` (stereo not drawn), the IC50 [20] was 5.18 µM (active), the IC50 [21] was 7.69 µM (active) and the EC50 [22] was > 100 µM (inactive). The IC50 [23] was > 100 µM (inactive).

For `CC1Cc2ccccc2N1C(=O)CN1C(=O)COc2ccccc21` (stereo not drawn), the AC50 [24] was “inconclusive”.

In the case of `O=S(=O)(Nc1ccc(C(O)(C(F)(F)F)C(F)(F)F)cc1)c1ccc(Cl)c2nonc12`, the IC50 [25] is reported as 14.3 µM (inactive), the IC50 [26] is reported as 41.6 µM (inactive) and the IC50 [27] is reported as 7.28 µM (active). The IC50 [28] was 2.08 µM (active).
